This assay concerns the target T1, Solute carrier family 15 member 1 (Homo sapiens, UniProt P46059).
T1 sequence (P46059 whole entry): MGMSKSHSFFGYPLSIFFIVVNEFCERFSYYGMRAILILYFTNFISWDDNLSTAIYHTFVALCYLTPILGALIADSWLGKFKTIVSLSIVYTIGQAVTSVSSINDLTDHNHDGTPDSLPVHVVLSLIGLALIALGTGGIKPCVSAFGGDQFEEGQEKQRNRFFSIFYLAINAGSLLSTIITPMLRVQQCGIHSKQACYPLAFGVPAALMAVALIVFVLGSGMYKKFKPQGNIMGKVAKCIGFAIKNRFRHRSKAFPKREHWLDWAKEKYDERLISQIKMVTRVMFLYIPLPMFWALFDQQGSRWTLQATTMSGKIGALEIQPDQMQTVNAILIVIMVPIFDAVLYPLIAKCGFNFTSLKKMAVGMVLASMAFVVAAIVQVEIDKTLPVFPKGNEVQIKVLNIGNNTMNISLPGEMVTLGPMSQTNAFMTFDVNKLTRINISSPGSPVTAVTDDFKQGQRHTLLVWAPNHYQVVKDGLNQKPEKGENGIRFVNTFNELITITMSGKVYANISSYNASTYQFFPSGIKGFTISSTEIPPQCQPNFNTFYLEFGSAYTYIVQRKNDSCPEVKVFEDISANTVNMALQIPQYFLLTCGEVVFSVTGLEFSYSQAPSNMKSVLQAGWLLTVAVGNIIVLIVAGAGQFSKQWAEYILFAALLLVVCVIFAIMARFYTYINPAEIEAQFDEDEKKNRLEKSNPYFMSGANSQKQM
Kind of assay: Inhibition constant (Ki) for human intestinal peptide carrier.

Where a SMILES comes first, the peptide text is derived from it. [ ]: non-standard residue; d: D form. Sar = CNCC(=O)O

These results are taken from ChEMBL document CHEMBL1145942, “Three-dimensional quantitative structure-activity relationship analyses of peptide substrates of the mammalian H+/peptide cotransporter PEPT1” (J Med Chem, 2003).

Regarding `C[C@@H](N)C(=O)N1CCC[C@H]1C(=O)O` (stereo in doubt; 56), the Ki – broadly, a dissociation constant, usually derived from enzyme kinetics or from competition with a known ligand – stood at 4900 µM. With `C[C@@H](N)C(=O)N1CCC[C@H]1C(=O)O` (stereo in doubt; 69), the Ki was 15100 µM.

The molecule `NCCCCC(=O)O` [5-AMINOVALERIC ACID] gave a Ki of 17400 µM. The Ki values of the last two molecules are within 1.5-fold of each other. Under `NCC(=O)CCC(=O)O` [AMINOLEVULINIC ACID] stands 790 µM; under `NCC(=O)N1CCC[C@H]1C(=O)O` [GLYCYL PROLINE] (H-Gly-Pro-OH), 300 µM; under `CN(CC(=O)O)C(=O)CN` [GLYCYLSARCOSINE] (H-Gly-[Sar]-OH), 830 µM. As to `CC(C)C[C@H](N)C(=O)N[C@@H](C)C(=O)O` [LEU-ALA] (H-Leu-Ala-OH), the Ki is 120 µM.
